Experimental data from patent publication US8765944B2, “Compounds for the treatment of hepatitis C” (priority 2010, dated 2014).

Tested on: HCV pseudoparticles
Assay: HCV pseudoparticle infection assay (luciferase reporter, Huh7 cells)
Assay type: cell-based, HCV (genotype 1b E1 and E2 envelope)
Conditions: Hepatitis C virus, genotype 1b, Huh-7, 48 h, HCV pseudoparticles (genotype 1b), luciferase activity 2 days after infection

Row | SMILES | EC50 (class) [µM] | EC50 [µM]
1 | O=C(CCCNC(=O)c1ccc(Nc2nc(NC3(c4ccc(Cl)cc4)CC3)nc(OCC(F)(F)F)n2)cc1)NCCC(=O)N[C@]1(C(=O)NS(=O)(=O)C2CC2)C[C@H]1C1CC1 [Example 2064] | 0.0005 to 0.1 | 
2 | C=C[C@@H]1C[C@]1(NC(=O)C1(CNC(=O)c2ccc(Nc3nc(NC4(c5ccc(Cl)cc5)CC4)nc(OCC(F)(F)F)n3)cc2)CC1)C(=O)NS(=O)(=O)C1CC1 [Example 2065] | 0.0005 to 0.1 | 
3 | O=C(NCC1(C(=O)N[C@]2(C(=O)NS(=O)(=O)C3CC3)C[C@H]2C2CC2)CC1)c1ccc(Nc2nc(NC3(c4ccc(Cl)cc4)CC3)nc(OCC(F)(F)F)n2)cc1 [Example 2066] | 0.0005 to 0.1 | 
4 | O=C(NCC1(C(=O)NC2(C(=O)NS(=O)(=O)C3CC3)CC2)CC1)c1ccc(Nc2nc(NC3(c4ccc(Cl)cc4)CC3)nc(OCC(F)(F)F)n2)cc1 [Example 2067] | 0.0005 to 0.1 | 
5 | C=C[C@@H]1C[C@]1(NC(=O)C1(CNC(=O)c2ccc(Nc3nc(NC4(c5ccc(Cl)cc5)CC4)nc(OCC(F)(F)F)n3)cc2)CC1)C(=O)NS(=O)(=O)C(C)(C)C [Example 2068] | 0.0005 to 0.1 | 
6 | C=C[C@@H]1C[C@]1(NC(=O)C1(CNC(=O)c2ccc(Nc3nc(NC4(c5ccc(Cl)cc5)CC4)nc(OCC(F)(F)F)n3)cc2)CC1)C(=O)NS(=O)(=O)C1CCC1 [Example 2069] | 0.0005 to 0.1 | 
7 | O=C(NCC1(C(=O)NS(=O)(=O)C2CC2)CC1)c1ccc(Nc2nc(NC3(c4ccc(Cl)cc4)CC3)nc(OCC(F)(F)F)n2)cc1 [Example 2070] | 0.0005 to 0.1 | 
8 | CS(=O)(=O)NC(=O)C1(CNC(=O)c2ccc(Nc3nc(NC4(c5ccc(Cl)cc5)CC4)nc(OCC(F)(F)F)n3)cc2)CC1 [Example 2071] | 0.0005 to 0.1 | 
9 | C=CS(=O)(=O)NC(=O)C1(CNC(=O)c2ccc(Nc3nc(NC4(c5ccc(Cl)cc5)CC4)nc(OCC(F)(F)F)n3)cc2)CC1 [Example 2072] | 0.0005 to 0.1 | 
10 | CCS(=O)(=O)NC(=O)C1(CNC(=O)c2ccc(Nc3nc(NC4(c5ccc(Cl)cc5)CC4)nc(OCC(F)(F)F)n3)cc2)CC1 [Example 2073] | 0.0005 to 0.1 | 
11 | CC(C)S(=O)(=O)NC(=O)C1(CNC(=O)c2ccc(Nc3nc(NC4(c5ccc(Cl)cc5)CC4)nc(OCC(F)(F)F)n3)cc2)CC1 [Example 2074] | 0.0005 to 0.1 | 
12 | CC(C)(C)S(=O)(=O)NC(=O)C1(CNC(=O)c2ccc(Nc3nc(NC4(c5ccc(Cl)cc5)CC4)nc(OCC(F)(F)F)n3)cc2)CC1 [Example 2075] | 0.0005 to 0.1 | 
13 | CCC1(S(=O)(=O)NC(=O)C2(CNC(=O)c3ccc(Nc4nc(NC5(c6ccc(Cl)cc6)CC5)nc(OCC(F)(F)F)n4)cc3)CC2)CC1 [Example 2076] | 0.0005 to 0.1 | 
14 | CCCC1(S(=O)(=O)NC(=O)C2(CNC(=O)c3ccc(Nc4nc(NC5(c6ccc(Cl)cc6)CC5)nc(OCC(F)(F)F)n4)cc3)CC2)CC1 [Example 2077] | 0.0005 to 0.1 | 
15 | CN(C)S(=O)(=O)NC(=O)C1(CNC(=O)c2ccc(Nc3nc(NC4(c5ccc(Cl)cc5)CC4)nc(OCC(F)(F)F)n3)cc2)CC1 [Example 2078] | 0.0005 to 0.1 | 
16 | CC(C)N(C(=O)C1(CNC(=O)c2ccc(Nc3nc(NC4(c5ccc(Cl)cc5)CC4)nc(OCC(F)(F)F)n3)cc2)CC1)S(N)(=O)=O [Example 2079] | 0.0005 to 0.1 | 
17 | C=C[C@@H]1C[C@]1(NC(=O)C(C)(C)CNC(=O)c1ccc(Nc2nc(NC3(c4ccc(Cl)cc4)CC3)nc(OCC(F)(F)F)n2)cc1)C(=O)NS(=O)(=O)C1CC1 [Example 2080] | 0.0005 to 0.1 | 
18 | CC(C)(CNC(=O)c1ccc(Nc2nc(NC3(c4ccc(Cl)cc4)CC3)nc(OCC(F)(F)F)n2)cc1)C(=O)N[C@]1(C(=O)NS(=O)(=O)C2CC2)C[C@H]1C1CC1 [Example 2081] | 0.0005 to 0.1 | 
19 | C=C[C@@H]1C[C@]1(NC(=O)C(C)(C)CNC(=O)c1ccc(Nc2nc(NC3(c4ccc(Cl)cc4)CC3)nc(OCC(F)(F)F)n2)cc1)C(=O)NS(=O)(=O)C(C)(C)C [Example 2082] | 0.0005 to 0.1 | 
20 | C=C[C@@H]1C[C@]1(NC(=O)C(C)(C)CNC(=O)c1ccc(Nc2nc(NC3(c4ccc(Cl)cc4)CC3)nc(OCC(F)(F)F)n2)cc1)C(=O)NS(=O)(=O)C1CCC1 [Example 2083] | 0.0005 to 0.1 | 
21 | CC(C)(CNC(=O)c1ccc(Nc2nc(NC3(c4ccc(Cl)cc4)CC3)nc(OCC(F)(F)F)n2)cc1)C(=O)NS(=O)(=O)C1CC1 [Example 2084] | 0.0005 to 0.1 | 0.006
22 | CC(C)(CNC(=O)c1ccc(Nc2nc(NC3(c4ccc(Cl)cc4)CC3)nc(OCC(F)(F)F)n2)cc1)C(=O)NS(C)(=O)=O [Example 2085] | 0.0005 to 0.1 | 
23 | C=CS(=O)(=O)NC(=O)C(C)(C)CNC(=O)c1ccc(Nc2nc(NC3(c4ccc(Cl)cc4)CC3)nc(OCC(F)(F)F)n2)cc1 [Example 2086] | 0.0005 to 0.1 | 
24 | CCS(=O)(=O)NC(=O)C(C)(C)CNC(=O)c1ccc(Nc2nc(NC3(c4ccc(Cl)cc4)CC3)nc(OCC(F)(F)F)n2)cc1 [Example 2087] | 0.0005 to 0.1 | 
25 | CC(C)S(=O)(=O)NC(=O)C(C)(C)CNC(=O)c1ccc(Nc2nc(NC3(c4ccc(Cl)cc4)CC3)nc(OCC(F)(F)F)n2)cc1 [Example 2088] | 0.0005 to 0.1 | 
26 | CC(C)(CNC(=O)c1ccc(Nc2nc(NC3(c4ccc(Cl)cc4)CC3)nc(OCC(F)(F)F)n2)cc1)C(=O)NS(=O)(=O)C1CCC1 [Example 2089] | 0.0005 to 0.1 | 

Row | SMILES | EC50 (class) [µM] | EC50 [µM]
27 | CC(C)(CNC(=O)c1ccc(Nc2nc(NC3(c4ccc(Cl)cc4)CC3)nc(OCC(F)(F)F)n2)cc1)C(=O)NS(=O)(=O)C(C)(C)C [Example 2090] | 0.0005 to 0.1 | 
28 | CCC1(S(=O)(=O)NC(=O)C(C)(C)CNC(=O)c2ccc(Nc3nc(NC4(c5ccc(Cl)cc5)CC4)nc(OCC(F)(F)F)n3)cc2)CC1 [Example 2091] | 0.0005 to 0.1 | 
29 | CCCC1(S(=O)(=O)NC(=O)C(C)(C)CNC(=O)c2ccc(Nc3nc(NC4(c5ccc(Cl)cc5)CC4)nc(OCC(F)(F)F)n3)cc2)CC1 [Example 2092] | 0.0005 to 0.1 | 
30 | CN(C)S(=O)(=O)NC(=O)C(C)(C)CNC(=O)c1ccc(Nc2nc(NC3(c4ccc(Cl)cc4)CC3)nc(OCC(F)(F)F)n2)cc1 [Example 2093] | 0.0005 to 0.1 | 
31 | COCCS(=O)(=O)NC(=O)C(C)(C)CNC(=O)c1ccc(Nc2nc(NC3(c4ccc(Cl)cc4)CC3)nc(OCC(F)(F)F)n2)cc1 [Example 2094] | 0.0005 to 0.1 | 
32 | CC(C)(CNC(=O)c1ccc(Nc2nc(NC3(c4ccc(Cl)cc4)CC3)nc(OCC(F)(F)F)n2)cc1)C(=O)NC1(C(=O)NS(=O)(=O)C2CC2)CC1 [Example 2095] | 0.0005 to 0.1 | 
33 | CC(C)(C)OC(=O)NC[C@H](NC(=O)c1ccc(Nc2nc(NC3(c4ccc(Cl)cc4)CC3)nc(OCC(F)(F)F)n2)cc1)C(=O)NS(=O)(=O)C1CC1 [Example 2096] | 0.0005 to 0.1 | 
34 | O=C(NS(=O)(=O)c1ccc(Nc2nc(NC3(c4ccc(Cl)cc4)CC3)nc(OCC(F)(F)F)n2)cc1)C1(CN2CCCC2)CC1 [Example 3001] | 1 to 5 | 
35 | O=C(NS(=O)(=O)c1ccc(Nc2nc(NC3(c4ccc(Cl)cc4)CC3)nc(OCC(F)(F)F)n2)cc1)C1(CN2CCCCC2)CC1 [Example 3002] | 0.1 to 1 | 0.477
36 | O=C(NS(=O)(=O)c1ccc(Nc2nc(NC3(c4ccc(Cl)cc4)CC3)nc(OCC(F)(F)F)n2)cc1)C1(CN2CCOCC2)CC1 [Example 3003] | 0.1 to 1 | 0.822
37 | CCN(CC)CC1(C(=O)NS(=O)(=O)c2ccc(Nc3nc(NC4(c5ccc(Cl)cc5)CC4)nc(OCC(F)(F)F)n3)cc2)CC1 [Example 3004] | 1 to 5 | 1.64
38 | CC(C)NCC1(C(=O)NS(=O)(=O)c2ccc(Nc3nc(NC4(c5ccc(Cl)cc5)CC4)nc(OCC(F)(F)F)n3)cc2)CC1 [Example 3005] | 1 to 5 | 
39 | CN(C)CC1(C(=O)NS(=O)(=O)c2ccc(Nc3nc(NC4(c5ccc(Cl)cc5)CC4)nc(OCC(F)(F)F)n3)cc2)CC1 [Example 3006] | 1 to 5 | 2.7
40 | CC(C)(C)CNCC1(C(=O)NS(=O)(=O)c2ccc(Nc3nc(NC4(c5ccc(Cl)cc5)CC4)nc(OCC(F)(F)F)n3)cc2)CC1 [Example 3007] | 1 to 5 | 2.8
41 | O=C(CN1CCCC1=O)NCC1(C(=O)NS(=O)(=O)c2ccc(Nc3nc(NC4(c5ccc(Cl)cc5)CC4)nc(OCC(F)(F)F)n3)cc2)CC1 [Example 3008] | 0.1 to 1 | 0.976
42 | O=C(CCN1CCS(=O)(=O)CC1)NCC1(C(=O)NS(=O)(=O)c2ccc(Nc3nc(NC4(c5ccc(Cl)cc5)CC4)nc(OCC(F)(F)F)n3)cc2)CC1 [Example 3009] | 1 to 5 | 
43 | CC(=O)NS(=O)(=O)CCNC(=O)c1ccc(Nc2nc(NC3(c4ccc(Cl)cc4)CC3)nc(OCC(F)(F)F)n2)cc1 [Example 4000] | 0.0005 to 0.1 | 
44 | CC(C)C(=O)NS(=O)(=O)CCNC(=O)c1ccc(Nc2nc(NC3(c4ccc(Cl)cc4)CC3)nc(OCC(F)(F)F)n2)cc1 [Example 4001] | 0.0005 to 0.1 | 
45 | O=C(NCCS(=O)(=O)NC(=O)C1CC1)c1ccc(Nc2nc(NC3(c4ccc(Cl)cc4)CC3)nc(OCC(F)(F)F)n2)cc1 [Example 4002] | 0.0005 to 0.1 | 
46 | CC(F)(F)CC(=O)NS(=O)(=O)CCNC(=O)c1ccc(Nc2nc(NC3(c4ccc(Cl)cc4)CC3)nc(OCC(F)(F)F)n2)cc1 [Example 4003] | 0.0005 to 0.1 | 
47 | CC(C)(C)OC(=O)N1CCC[C@H]1C(=O)NS(=O)(=O)CCNC(=O)c1ccc(Nc2nc(NC3(c4ccc(Cl)cc4)CC3)nc(OCC(F)(F)F)n2)cc1 [Example 4004] | 0.0005 to 0.1 | 0.0026
48 | CC(C)(C)OC(=O)N1CCC(C(=O)NS(=O)(=O)CCNC(=O)c2ccc(Nc3nc(NC4(c5ccc(Cl)cc5)CC4)nc(OCC(F)(F)F)n3)cc2)CC1 [Example 4005] | 0.0005 to 0.1 | 
49 | CC(C)(C)OC(=O)N1C[C@@H](NC(=O)c2ccc(Nc3nc(NC4(c5ccc(Cl)cc5)CC4)nc(OCC(F)(F)F)n3)cc2)C[C@@H]1C(=O)NS(=O)(=O)C1CC1 [Example 5000] | 0.0005 to 0.1 | 
50 | CC(C)(C)OC(=O)N1C[C@@H](NC(=O)c2ccc(Nc3nc(NC4(c5ccc(Cl)cc5)CC4)nc(OCC(F)(F)F)n3)cc2)C[C@@H]1C(=O)NC1(C(=O)NS(=O)(=O)C2CC2)CC1 [Example 5002] | 0.0005 to 0.1 | 
51 | CC(C)S(=O)(=O)NC(=O)COc1ccc(C2(Nc3nc(Nc4ccc(C(=O)NCC5(CN6CCCC6)CC5)cc4)nc(OCC(F)(F)F)n3)CC2)cc1 [Example 6000, 4-(4-(1-(4-(2-(1-methylethylsulfonamido)-2-oxoethoxy)phenyl)cyclopropylamino)-6-(2,2,2-trifluoroethoxy)-1,3,5-triazin-2-ylamino)-N-((1-(pyrrolidin-1-ylmethyl)cyclopropyl)methyl)benzamide] | 0.0005 to 0.1 | 
